Numbers after ± are expanded uncertainties.
Experiment: xn = mol fraction of the nth substance listed
Settings: 100 kPa, Liquid; for viscosity: Concentric cylinders viscometry; for mass density: Vibrating tube method

O=C1CCCCC1 [cyclohexanone] + CCCCCCCCCCO
Settings	mass density [kg/m3]	viscosity [mPa·s]
293.15 K, x1 = 0.0807	834.5 ± 20	12.23 ± 0.62
293.15 K, x1 = 0.1613	840 ± 20	10.39 ± 0.52
293.15 K, x1 = 0.2387	845.6 ± 20	8.73 ± 0.44
293.15 K, x1 = 0.3519	855.1 ± 20	6.64 ± 0.34
293.15 K, x1 = 0.4407	863.4 ± 20	5.35 ± 0.27
293.15 K, x1 = 0.5568	875.9 ± 20	3.94 ± 0.2
293.15 K, x1 = 0.6517	887.7 ± 20	3.08 ± 0.16
293.15 K, x1 = 0.7412	900.4 ± 20	2.54 ± 0.13
293.15 K, x1 = 0.8518	918.6 ± 20	2.22 ± 0.11
293.15 K, x1 = 0.9441	936.5 ± 20	2.17 ± 0.11
293.15 K, x1 = 1	948.8 ± 20	2.3 ± 0.12
298.15 K, x1 = 0.0807	830.9 ± 20	10 ± 0.5
298.15 K, x1 = 0.1613	836.4 ± 20	8.43 ± 0.42
298.15 K, x1 = 0.2387	841.8 ± 20	7.18 ± 0.36
298.15 K, x1 = 0.3519	851 ± 20	5.67 ± 0.29
298.15 K, x1 = 0.4407	859.2 ± 20	4.69 ± 0.24
298.15 K, x1 = 0.5568	871.4 ± 20	3.56 ± 0.18
298.15 K, x1 = 0.6517	883 ± 20	2.87 ± 0.15
298.15 K, x1 = 0.7412	895.4 ± 20	2.43 ± 0.12
298.15 K, x1 = 0.8518	913.3 ± 20	2.13 ± 0.11
298.15 K, x1 = 0.9441	930.9 ± 20	2.08 ± 0.11
298.15 K, x1 = 1	943.1 ± 20	2.09 ± 0.11
303.15 K, x1 = 0.0807	827.4 ± 20	8.39 ± 0.42
303.15 K, x1 = 0.1613	832.6 ± 20	7.21 ± 0.36
303.15 K, x1 = 0.2387	838.1 ± 20	6.19 ± 0.31
303.15 K, x1 = 0.3519	847.2 ± 20	4.87 ± 0.25
303.15 K, x1 = 0.4407	855.2 ± 20	4.04 ± 0.2
303.15 K, x1 = 0.5568	867.3 ± 20	3.16 ± 0.16
303.15 K, x1 = 0.6517	878.7 ± 20	2.6 ± 0.13
303.15 K, x1 = 0.7412	891 ± 20	2.23 ± 0.11
303.15 K, x1 = 0.8518	908.7 ± 20	1.97 ± 0.1
303.15 K, x1 = 0.9441	926.1 ± 20	1.89 ± 0.1
303.15 K, x1 = 1	938.2 ± 20	1.91 ± 0.1
308.15 K, x1 = 0.0807	823.9 ± 20	7.09 ± 0.36
308.15 K, x1 = 0.1613	829.1 ± 20	6.14 ± 0.31
308.15 K, x1 = 0.2387	834.5 ± 20	5.38 ± 0.27
308.15 K, x1 = 0.3519	843.4 ± 20	4.37 ± 0.22
308.15 K, x1 = 0.4407	851.4 ± 20	3.69 ± 0.19
308.15 K, x1 = 0.5568	863.3 ± 20	2.94 ± 0.15
308.15 K, x1 = 0.6517	874.6 ± 20	2.45 ± 0.12
308.15 K, x1 = 0.7412	886.7 ± 20	2.11 ± 0.11
308.15 K, x1 = 0.8518	904.2 ± 20	1.84 ± 0.09
308.15 K, x1 = 0.9441	921.5 ± 20	1.73 ± 0.09
308.15 K, x1 = 1	933.5 ± 20	1.75 ± 0.09
313.15 K, x1 = 0.0807	820.4 ± 20	5.99 ± 0.3
313.15 K, x1 = 0.1613	825.5 ± 20	5.26 ± 0.26
313.15 K, x1 = 0.2387	830.8 ± 20	4.6 ± 0.23
313.15 K, x1 = 0.3519	839.6 ± 20	3.75 ± 0.19
313.15 K, x1 = 0.4407	847.4 ± 20	3.17 ± 0.16
313.15 K, x1 = 0.5568	859.2 ± 20	2.6 ± 0.13
313.15 K, x1 = 0.6517	870.3 ± 20	2.21 ± 0.11
313.15 K, x1 = 0.7412	882.4 ± 20	1.92 ± 0.1
313.15 K, x1 = 0.8518	899.7 ± 20	1.7 ± 0.09
313.15 K, x1 = 0.9441	916.9 ± 20	1.57 ± 0.08
313.15 K, x1 = 1	928.8 ± 20	1.6 ± 0.08
318.15 K, x1 = 0.0807	816.9 ± 20	5.08 ± 0.26
318.15 K, x1 = 0.1613	821.9 ± 20	4.45 ± 0.22
318.15 K, x1 = 0.2387	827.2 ± 20	3.86 ± 0.19
318.15 K, x1 = 0.3519	835.9 ± 20	3.15 ± 0.16
318.15 K, x1 = 0.4407	843.6 ± 20	2.69 ± 0.14
318.15 K, x1 = 0.5568	855.3 ± 20	2.19 ± 0.11
318.15 K, x1 = 0.6517	866.3 ± 20	1.88 ± 0.1
318.15 K, x1 = 0.7412	878.3 ± 20	1.67 ± 0.08
318.15 K, x1 = 0.8518	895.5 ± 20	1.51 ± 0.08
318.15 K, x1 = 0.9441	912.6 ± 20	1.44 ± 0.07
318.15 K, x1 = 1	924.4 ± 20	1.46 ± 0.07
323.15 K, x1 = 0.0807	813.3 ± 20	4.41 ± 0.22
323.15 K, x1 = 0.1613	818.3 ± 20	3.88 ± 0.2
323.15 K, x1 = 0.2387	823.5 ± 20	3.43 ± 0.17
323.15 K, x1 = 0.3519	832.1 ± 20	2.84 ± 0.14
323.15 K, x1 = 0.4407	839.8 ± 20	2.46 ± 0.12
323.15 K, x1 = 0.5568	851.4 ± 20	2.05 ± 0.1
323.15 K, x1 = 0.6517	862.5 ± 20	1.78 ± 0.09
323.15 K, x1 = 0.7412	874.4 ± 20	1.57 ± 0.08
323.15 K, x1 = 0.8518	891.7 ± 20	1.42 ± 0.07
323.15 K, x1 = 0.9441	908.8 ± 20	1.35 ± 0.07
323.15 K, x1 = 1	920.7 ± 20	1.34 ± 0.07
